Experimental findings from publication PMC3481155, “AhR activation underlies the CYP1A autoinduction by A-998679 in rats” (Frontiers in Genetics, 2012) are described below.

Molecules are shown by their SMILES.

Data set [1] is described as follows: 5-day oral rat study, pharmacokinetic analysis of plasma exposure. Format: in vivo. The protocol: (§1) All animal experiments were conducted in accordance with the Guiding Principles in the Use of Animals in Toxicology (http://www.toxicology.org/ai/air/air6.asp) and were approved by Abbott's Institutional Animal Care and Use Committee (IACUC). Male Sprague-Dawley rats [Crl:CD®(SD)IGS BR], weighing ~250 g at study initiation were obtained from Charles River Laboratories, Inc. (Wilmington, MA). Rats were housed singly in ventilated, stainless steel, wire-bottom hanging cages and fed non-certified Rodent Chow (Harlan Labs, Madison, WI), and water ad libitum and acclimated for at least 5 days after arrival. Rats were randomly assigned to various treatment groups (3 rats/group) and were dosed once daily by oral gavage with vehicle (0.2% hydroxypropylmethylcellulose at a dose volume of 10 ml/kg) or with 30, 100, or 200 mg/kg of A-998679. All rats were fasted overnight after their last dose, weighed and sacrificed under isoflurane anesthesia. For histopathological evaluation, liver, heart, kidney, spleen, bone (sternum) with marrow, gastrointestinal tract (duodenum with pancreas, jejunum, ileum, cecum, and colon), thymus, and lung were fixed in formalin, routinely processed, and embedded in paraffin. Paraffin sections (4 μm) were stained with hematoxylin and eosin. Liver and small intestine (jejunum) were also flash frozen in liquid nitrogen and stored at −80°C until processing for gene expression profiling. Serum clinical chemistry parameters were quantified using an Aeroset Clinical Chemistry Analyzer (Abbott Laboratories, Abbott Park, IL) and included alanine amino transferase (ALT), aspartate amino transferase (AST), gamma glutamyltransferase (GGT), and alkaline phosphatase (ALP) activities.
Serial blood samples were obtained from a tail vein of each rat 0.5, 1.5, 3, 6, 9, 12, and 24 h after drug administration on the first and last day of dosing. Plasma was separated by centrifugation and stored frozen prior to analysis. A-998679 was separated from the plasma using protein precipitation with acetonitrile. A-998679 and the internal standard were separated from co-extracted contaminants on a 50 × 3 mm Betasil CN column (Thermosystem) with an acetonitrile: 10 mM ammonium acetate mobile phase (35:65, by volume) at a flow rate of 0.4 ml/min at ambient temperature. Concentrations of A-998679 in the plasma extracts were determined by HPLC-MS/MS (API2000; Applied Biosystems). Peak plasma concentrations (Cmax) and the time to peak plasma concentration (Tmax) were read directly from the plasma concentration data for each rat. A-998679 plasma concentration data were submitted to multi-exponential curve fitting using WinNonlin. The area under the plasma concentration-time curve from 0 to t hours (time of the last measurable plasma concentration) after dosing (AUC0-t) was calculated using the linear trapezoidal rule for the plasma concentration-time profiles. The residual area extrapolated to infinity, determined as the final measured plasma concentration (Ct) divided by the terminal elimination rate constant (β), was added to AUC0-t to produce the total area under the curve (AUC0-∞).

For the next data set, the system named is Cyp1a1. In words: Immunohistochemistry of Cyp1a1 in rat liver. The data set is classed as in vivo. The settings on record: 5 days of treatment; not detectable in control livers. As for the experimental part: as §1, with “For histopathological evaluation, liver, heart, kidney, spleen, bone (sternum) with marrow, gastrointestinal tract (duodenum with pancreas, jejunum, ileum, cecum, and colon), thymus, and lung were fixed in formalin, routinely processed, and embedded in paraffin. Paraffin sections (4 μm) were stained with hematoxylin and eosin. Liver and small intestine (jejunum) were also flash frozen in liquid nitrogen and stored at −80°C until processing for gene expression profiling.” left out, “activities. […]” for “activities.”

Another data set deals with T1, rat Cyp 2C12 (Rattus norvegicus, UniProt P11510).
T1 construct: purchased BD Gentest; host or cells: baculovirus infected insect cells
In words: Recombinant rat Cyp phenotype profiling, 2C12. As to conditions: 60 min. The data set is classed as in vitro ADME. As for the experimental part:
(§2) Identification of the drug metabolizing enzymes (DMEs) of A-998679 was studied in cDNA expressed recombinant enzymes prepared from baculovirus infected insect cells over-expressing rat Cyp isoforms (BD Gentest, Woburn, MA) as listed in Table 2. Incubations were conducted in duplicate using Supersomes. The incubation mixture contained 100 pmol/ml of enzymes, except for Cyp1a1 (200 pmol/ml), 0.1 or 0.21 μM of [^3H]A-998679 in 100 mM phosphate buffer (pH 7.4). Reactions were initiated with the addition of NADPH at a final concentration of 1 mM and incubated at 37°C for 60 min. At the end of the incubation period, the incubations were terminated by the addition of acetonitrile/ethanol (50/50, v/v) solution. Insect control samples lacking expressed enzyme were used as negative control. The degree of metabolism of A-998679 was assessed by percent of parent remaining using the radio-HPLC method described below.
(§3) Radiolabeled components from the above assays were profiled following separation by HPLC with on line radioflow detector. The system consisted of an Agilent 1100 Series quaternary pump and autosampler connected to a Packard 500TR flow scintillation detector. The data were processed using the Radiomatic™ Flo-one® software v3.65. The scintillant (Perkin Elmer FLO-SCINT™ III) flow was maintained at 3 ml/min. […]

The next data set concerns the target T2, rat Cyp 2E1 (Rattus norvegicus, UniProt P05182).
T2 construct: purchased BD Gentest; host or cells: baculovirus infected insect cells
In words: Recombinant rat Cyp phenotype profiling, 2E1. Format: in vitro ADME. The settings on record: 60 min. As for the experimental part:
as §2, §3

The mark [2] stands for this setting: 30 and 100 mg/kg/day, data not shown.

T2 sequence (P05182 whole entry): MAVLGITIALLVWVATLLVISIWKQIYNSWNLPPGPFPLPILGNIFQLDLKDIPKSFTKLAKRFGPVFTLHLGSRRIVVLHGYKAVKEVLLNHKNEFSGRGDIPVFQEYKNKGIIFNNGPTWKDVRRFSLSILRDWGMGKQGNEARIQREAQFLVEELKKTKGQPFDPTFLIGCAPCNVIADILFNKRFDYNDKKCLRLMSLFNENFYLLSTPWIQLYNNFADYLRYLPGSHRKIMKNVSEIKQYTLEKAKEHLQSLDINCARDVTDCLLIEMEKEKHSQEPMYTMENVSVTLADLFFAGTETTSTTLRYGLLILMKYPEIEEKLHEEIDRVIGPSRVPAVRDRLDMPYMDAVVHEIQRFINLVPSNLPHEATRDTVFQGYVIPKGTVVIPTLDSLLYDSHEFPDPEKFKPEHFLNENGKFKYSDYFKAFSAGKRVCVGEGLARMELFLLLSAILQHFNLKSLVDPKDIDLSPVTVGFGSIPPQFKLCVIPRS
T1 sequence (P11510 whole entry): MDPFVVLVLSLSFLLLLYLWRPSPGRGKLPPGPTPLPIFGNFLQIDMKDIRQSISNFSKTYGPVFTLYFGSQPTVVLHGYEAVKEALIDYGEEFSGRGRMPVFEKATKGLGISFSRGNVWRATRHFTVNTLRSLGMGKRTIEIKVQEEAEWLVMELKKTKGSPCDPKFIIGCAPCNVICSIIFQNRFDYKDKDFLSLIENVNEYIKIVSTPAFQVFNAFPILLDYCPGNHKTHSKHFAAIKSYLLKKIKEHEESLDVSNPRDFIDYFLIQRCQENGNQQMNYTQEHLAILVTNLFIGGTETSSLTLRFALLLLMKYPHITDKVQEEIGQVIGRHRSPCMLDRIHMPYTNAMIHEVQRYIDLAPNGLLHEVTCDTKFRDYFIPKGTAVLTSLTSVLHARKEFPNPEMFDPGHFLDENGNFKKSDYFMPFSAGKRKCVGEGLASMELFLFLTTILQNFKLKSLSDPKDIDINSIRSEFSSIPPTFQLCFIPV

Consider `N#Cc1cccc(-c2noc(-c3cccnc3)n2)c1` [A-998679, 3-(5-pyridin-3-yl-1,2,4-oxadiazol-3-yl) benzonitrile], for which the “decline in Cmax after 5 days of dosing compared to the first day” value was 88% in data set [1] (30 mg/kg/day, day 5 vs day 1) and 53% in data set [1] (100 mg/kg/day, day 5 vs day 1). In addition, the “decrease in plasma AUC after 5 days of dosing” value in data set [1] (30 mg/kg/day, day 5 vs day 1) is given as 95%; in data set [1] (100 mg/kg/day, day 5 vs day 1), 80%. Further, the “change in AUC after 5 days of dosing” value in data set [1] (200 mg/kg/day, day 5 vs day 1) is “no change”. Moreover, in data set [1] (200 mg/kg/day, day 5 vs day 1), the “change in Cmax after 5 days of dosing” value is “no change”. Besides, the “change in Tmax after 5 days of dosing” value in data set [1] (setting [2]) is reported as “decrease”. Besides, the “change in t1/2 after 5 days of dosing” value in data set [1] (setting [2]) is listed as “decrease”. In data set [1] (male, Sprague-Dawley, plasma, 30 mg/kg), the Cmax (in general, the maximum level reached in the sampled fluid or tissue) was approximately 5 µM. Also, the “Cyp1a1 immunostaining in rat liver” value in the data set on Cyp1a1 was “moderate levels in centrilobular regions”. Moreover, the “% parent remaining” value on rat Cyp 2C12 (recombinant rat Cyp 2C12, 0.10 μM) was determined as 100%; at rat Cyp 2C12 (recombinant rat Cyp 2C12, 0.21 μM), 100%; on rat Cyp 2E1 (recombinant rat Cyp 2E1, 0.10 μM) it was 95.5%; at rat Cyp 2E1 (recombinant rat Cyp 2E1, 0.21 μM), 91.9%.
